Earlier results as cited in patent US20240260569A1, “DISINFECTANT LIQUID, PREPARATION METHOD THEREOF AND FILM LAYER” (Shanghai Anpas New Materials Science & Technology Co., Ltd., priority 2021, published 2024).
Like-named read-outs stand apart in the source and are kept apart here.

Legend:
[1] = relative to hypochlorite ions
[2] = aqueous solution

Q: For OCl [hypochlorous acid], which “disinfection and sterilization ability versus hypochlorite ions” value [1] is on record?
A: 80 to 100 times

Q: For O=c1nc([O-])n(Cl)c(=O)n1Cl.[Na+] [Sodium dichloroisocyanurate], which active chlorine loss ([2]; within a week) is on record?
A: about 50%

Q: For OCl [sodium hypochlorite], which “pH of a 10% solution” value is on record?
A: around 12

Q: And the active chlorine loss ([2]; pH 9.4, after 14 days at 55° C.)?
A: 63%

Q: What about the active chlorine loss ([2]; pH=8.7, after 14 days at 55° C.) of the same compound?
A: 94%
